Experiment: ICH stability study of psilocybin batches (appearance, water content, purity, assay)

CN(C)CCc1c[nH]c2cccc(OP(=O)(O)O)c12 [Batch 170231]
Impurities by HPLC: RRT 1.62 (Psilocin) (T = 6 months, 2-8° C.): 0.35% | Impurities by HPLC: RRT 1.70 (T = 6 months, 2-8° C.): LT 0.05% | Impurities by HPLC: line without printed RRT (after RRT0.69) (T = 6 months, 2-8° C.): 0.07% | Impurity at RRT 1.89 (T = 6 months, 2-8° C.): LT 0.05% | Impurity at RRT 2.45 (T = 6 months, 2-8° C.): LT 0.05% | Total Impurities (T = 6 months, 2-8° C.): 0.80% | Water content by loss on drying (T = 6 months, 2-8° C.): 0.06% ^w/w % w/w | Appearance (T = 6 months, 25° C./60% RH): An off white solid. | Assay by HPLC (on a dry basis) (T = 6 months, 25° C./60% RH): 98.04% ^w/w % w/w | Chemical Purity By HPLC (T = 6 months, 25° C./60% RH): 99.19% | Impurities LT 0.05% (T = 6 months, 25° C./60% RH): 0.34% | Impurities by HPLC: RRT0.69 (T = 6 months, 25° C./60% RH): 0.06% | Impurities by HPLC: RRT 1.49 (T = 6 months, 25° C./60% RH): LT 0.05% | Impurities by HPLC: RRT 1.62 (Psilocin) (T = 6 months, 25° C./60% RH): 0.34% | Impurities by HPLC: RRT 1.70 (T = 6 months, 25° C./60% RH): LT 0.05% | Impurities by HPLC: line without printed RRT (after RRT0.69) (T = 6 months, 25° C./60% RH): 0.07% | Impurity at RRT 1.89 (T = 6 months, 25° C./60% RH): LT 0.05% | Impurity at RRT 2.45 (T = 6 months, 25° C./60% RH): LT 0.05% | Total Impurities (T = 6 months, 25° C./60% RH): 0.81% | Water content by loss on drying (T = 6 months, 25° C./60% RH): 0.32% ^w/w % w/w | Appearance (T = 6 months, 40° C./75% RH): An off white solid. | Assay by HPLC (on a dry basis) (T = 6 months, 40° C./75% RH): 100.10% ^w/w % w/w | Chemical Purity By HPLC (T = 6 months, 40° C./75% RH): 99.12% | Impurities LT 0.05% (T = 6 months, 40° C./75% RH): 0.36% | Impurities by HPLC: RRT0.69 (T = 6 months, 40° C./75% RH): 0.06% | Impurities by HPLC: RRT 1.49 (T = 6 months, 40° C./75% RH): LT 0.05% | Impurities by HPLC: RRT 1.62 (Psilocin) (T = 6 months, 40° C./75% RH): 0.38% | Impurities by HPLC: RRT 1.70 (T = 6 months, 40° C./75% RH): LT 0.05% | Impurities by HPLC: line without printed RRT (after RRT0.69) (T = 6 months, 40° C./75% RH): 0.08% | Impurity at RRT 1.89 (T = 6 months, 40° C./75% RH): LT 0.05% | Impurity at RRT 2.45 (T = 6 months, 40° C./75% RH): LT 0.05% | Total Impurities (T = 6 months, 40° C./75% RH): 0.88% | Water content by loss on drying (T = 6 months, 40° C./75% RH): 2.26% ^w/w % w/w | Appearance (T = 9 months, 2-8° C.): An off white solid. | Assay by HPLC (on a dry basis) (T = 9 months, 2-8° C.): 97.53% ^w/w % w/w | Chemical Purity By HPLC (T = 9 months, 2-8° C.): 99.16% | Impurities by HPLC: RRT0.69 (T = 9 months, 2-8° C.): LT 0.05% | Impurities by HPLC: RRT 1.49 (T = 9 months, 2-8° C.): 0.07% | Impurities by HPLC: RRT 1.62 (Psilocin) (T = 9 months, 2-8° C.): 0.06% | Impurities by HPLC: RRT 1.70 (T = 9 months, 2-8° C.): 0.37% | Impurities by HPLC: line without printed RRT (after RRT0.69) (T = 9 months, 2-8° C.): LT 0.05% | Impurity at RRT 1.89 (T = 9 months, 2-8° C.): LT 0.05% | Impurity at RRT 2.45 (T = 9 months, 2-8° C.): LT 0.05% | Total Impurities (T = 9 months, 2-8° C.): 0.84% | Water content by loss on drying (T = 9 months, 2-8° C.): 0.21% ^w/w % w/w | Appearance (T = 9 months, 25° C./60% RH): An off white solid. | Assay by HPLC (on a dry basis) (T = 9 months, 25° C./60% RH): 98.12% ^w/w % w/w | Chemical Purity By HPLC (T = 9 months, 25° C./60% RH): 99.16% | Impurities by HPLC: RRT0.69 (T = 9 months, 25° C./60% RH): LT 0.05% | Impurities by HPLC: RRT 1.49 (T = 9 months, 25° C./60% RH): 0.05% | Impurities by HPLC: RRT 1.62 (Psilocin) (T = 9 months, 25° C./60% RH): 0.06% | Impurities by HPLC: RRT 1.70 (T = 9 months, 25° C./60% RH): 0.37% | Impurities by HPLC: line without printed RRT (after RRT0.69) (T = 9 months, 25° C./60% RH): LT 0.05% | Impurity at RRT 1.89 (T = 9 months, 25° C./60% RH): LT 0.05% | Impurity at RRT 2.45 (T = 9 months, 25° C./60% RH): LT 0.05% | Total Impurities (T = 9 months, 25° C./60% RH): 0.84% | Water content by loss on drying (T = 9 months, 25° C./60% RH): 0.10% ^w/w % w/w | Appearance (T = 12 months, 2-8° C.): An off white solid. | Assay by HPLC (on a dry basis) (T = 12 months, 2-8° C.): 99.63% ^w/w % w/w | Chemical Purity By HPLC (T = 12 months, 2-8° C.): 99.25% | Impurities LT 0.05% (T = 12 months, 2-8° C.): 0.38% | Impurities by HPLC: RRT0.69 (T = 12 months, 2-8° C.): LT 0.05% | Impurities by HPLC: RRT 1.49 (T = 12 months, 2-8° C.): LT 0.05% | Impurities by HPLC: RRT 1.62 (Psilocin) (T = 12 months, 2-8° C.): 0.37% | Impurities by HPLC: RRT 1.70 (T = 12 months, 2-8° C.): LT 0.05% | Impurity at RRT 1.89 (T = 12 months, 2-8° C.): LT 0.05% | Impurity at RRT 2.45 (T = 12 months, 2-8° C.): LT 0.05% | Total Impurities (T = 12 months, 2-8° C.): 0.75% | Water content by loss on drying (T = 12 months, 2-8° C.): 0.49% ^w/w % w/w | Appearance (T = 12 months, 25° C./60% RH): An off white solid. | Assay by HPLC (on a dry basis) (T = 12 months, 25° C./60% RH): 98.97% ^w/w % w/w | Chemical Purity By HPLC (T = 12 months, 25° C./60% RH): 99.25% | Impurities LT 0.05% (T = 12 months, 25° C./60% RH): 0.38% | Impurities by HPLC: RRT0.69 (T = 12 months, 25° C./60% RH): LT 0.05% | Impurities by HPLC: RRT 1.49 (T = 12 months, 25° C./60% RH): LT 0.05% | Impurities by HPLC: RRT 1.62 (Psilocin) (T = 12 months, 25° C./60% RH): 0.37% | Impurities by HPLC: RRT 1.70 (T = 12 months, 25° C./60% RH): LT 0.05% | Impurity at RRT 2.45 (T = 12 months, 25° C./60% RH): LT 0.05% | Total Impurities (T = 12 months, 25° C./60% RH): 0.75% | Water content by loss on drying (T = 12 months, 25° C./60% RH): 0.61% ^w/w % w/w
